Several values for one entry are separate records, joined by “and”; a condition that tells them apart may be missing. Identical values can stand only once. Numbers after ± are expanded uncertainties.
Conditions: 283.15 K, Liquid, Vibrating tube method

CCCCCC(=O)OCC(COC(=O)CCCCC)(COC(=O)CCCCC)COC(=O)CCCCC [pentaerythritol tetrahexanoate]
Conditions | mass density
6771 kPa | 1008.1 ± 1.2 kg/m3
6771.2 kPa | 1008 ± 1.2 kg/m3
6771.4 kPa | 1008.1 ± 1.2 kg/m3 and 1008 ± 1.2 kg/m3
6771.6 kPa | 1008.1 ± 1.2 kg/m3
6771.7 kPa | 1008.1 ± 1.2 kg/m3
6771.9 kPa | 1008 ± 1.2 kg/m3
6772.1 kPa | 1008.1 ± 1.2 kg/m3
6772.3 kPa | 1008.1 ± 1.2 kg/m3
6772.4 kPa | 1008 ± 1.2 kg/m3 and 1008.1 ± 1.2 kg/m3 and 1008.2 ± 1.2 kg/m3
6772.6 kPa | 1008.1 ± 1.2 kg/m3 and 1008 ± 1.2 kg/m3
6772.8 kPa | 1008.1 ± 1.2 kg/m3 and 1007.9 ± 1.2 kg/m3
6772.9 kPa | 1008.1 ± 1.2 kg/m3
6773.1 kPa | 1008 ± 1.2 kg/m3 and 1008.2 ± 1.2 kg/m3
6773.3 kPa | 1008 ± 1.2 kg/m3 and 1008.2 ± 1.2 kg/m3
6773.5 kPa | 1008 ± 1.2 kg/m3 and 1008.1 ± 1.2 kg/m3
6773.6 kPa | 1008.1 ± 1.2 kg/m3 and 1008.2 ± 1.2 kg/m3 and 1008 ± 1.2 kg/m3
6773.7 kPa | 1008 ± 1.2 kg/m3
6773.8 kPa | 1008.1 ± 1.2 kg/m3 and 1008 ± 1.2 kg/m3
6774.1 kPa | 1008.1 ± 1.2 kg/m3
6774.2 kPa | 1008.1 ± 1.2 kg/m3
6774.3 kPa | 1008.1 ± 1.2 kg/m3
6774.5 kPa | 1008.2 ± 1.2 kg/m3 and 1008 ± 1.2 kg/m3 and 1008.1 ± 1.2 kg/m3
6774.7 kPa | 1008.1 ± 1.2 kg/m3 and 1008.2 ± 1.2 kg/m3 and 1008 ± 1.2 kg/m3
6774.8 kPa | 1007.9 ± 1.2 kg/m3 and 1008.1 ± 1.2 kg/m3 and 1008 ± 1.2 kg/m3
6775 kPa | 1008.1 ± 1.2 kg/m3 and 1007.9 ± 1.2 kg/m3
6775.1 kPa | 1008.2 ± 1.2 kg/m3 and 1008.1 ± 1.2 kg/m3
6775.2 kPa | 1008.1 ± 1.2 kg/m3 and 1008.2 ± 1.2 kg/m3
6775.4 kPa | 1008.2 ± 1.2 kg/m3 and 1008 ± 1.2 kg/m3
6776.1 kPa | 1008.1 ± 1.2 kg/m3
6776.2 kPa | 1008.1 ± 1.2 kg/m3
6776.6 kPa | 1008.2 ± 1.2 kg/m3 and 1008.1 ± 1.2 kg/m3
6776.8 kPa | 1008.1 ± 1.2 kg/m3 and 1008.2 ± 1.2 kg/m3 and 1008 ± 1.2 kg/m3
6776.9 kPa | 1008.2 ± 1.2 kg/m3 and 1008.1 ± 1.2 kg/m3
6777.1 kPa | 1008.1 ± 1.2 kg/m3
6777.3 kPa | 1008.1 ± 1.2 kg/m3
6777.5 kPa | 1008.1 ± 1.2 kg/m3 and 1008 ± 1.2 kg/m3
6777.6 kPa | 1008.1 ± 1.2 kg/m3 and 1008 ± 1.2 kg/m3
6777.8 kPa | 1008.1 ± 1.2 kg/m3 and 1008.2 ± 1.2 kg/m3 and 1008 ± 1.2 kg/m3
6778 kPa | 1008.2 ± 1.2 kg/m3
6778.1 kPa | 1008 ± 1.2 kg/m3 and 1008.1 ± 1.2 kg/m3 and 1008.2 ± 1.2 kg/m3
6778.3 kPa | 1008.1 ± 1.2 kg/m3 and 1008.2 ± 1.2 kg/m3
6778.5 kPa | 1008.1 ± 1.2 kg/m3 and 1008 ± 1.2 kg/m3 and 1007.9 ± 1.2 kg/m3
6778.7 kPa | 1008 ± 1.2 kg/m3 and 1008.1 ± 1.2 kg/m3
6779 kPa | 1008.1 ± 1.2 kg/m3
6779.2 kPa | 1008 ± 1.2 kg/m3 and 1008.1 ± 1.2 kg/m3
6779.3 kPa | 1008.2 ± 1.2 kg/m3
6779.5 kPa | 1008 ± 1.2 kg/m3 and 1008.1 ± 1.2 kg/m3
6779.7 kPa | 1008.1 ± 1.2 kg/m3 and 1008.2 ± 1.2 kg/m3
6779.8 kPa | 1008.2 ± 1.2 kg/m3
6779.9 kPa | 1008 ± 1.2 kg/m3 and 1008.1 ± 1.2 kg/m3
6780 kPa | 1008.1 ± 1.2 kg/m3 [middle of 4 runs]
6780.2 kPa | 1008.1 ± 1.2 kg/m3 and 1008 ± 1.2 kg/m3
6780.3 kPa | 1008 ± 1.2 kg/m3
6780.4 kPa | 1008 ± 1.2 kg/m3 and 1008.2 ± 1.2 kg/m3 and 1008.1 ± 1.2 kg/m3
6780.5 kPa | 1008.1 ± 1.2 kg/m3 and 1008 ± 1.2 kg/m3
6780.6 kPa | 1008.1 ± 1.2 kg/m3
6780.7 kPa | 1008 ± 1.2 kg/m3 and 1008.2 ± 1.2 kg/m3 and 1008.1 ± 1.2 kg/m3
6780.8 kPa | 1008.2 ± 1.2 kg/m3 and 1008.1 ± 1.2 kg/m3
6780.9 kPa | 1008.1 ± 1.2 kg/m3
6781 kPa | 1008.1 ± 1.2 kg/m3 and 1008 ± 1.2 kg/m3 and 1008.2 ± 1.2 kg/m3
6781.1 kPa | 1008.1 ± 1.2 kg/m3
6781.2 kPa | 1008.1 ± 1.2 kg/m3
6781.3 kPa | 1008.1 ± 1.2 kg/m3
6781.4 kPa | 1008.1 ± 1.2 kg/m3
6781.5 kPa | 1008.1 ± 1.2 kg/m3
6781.7 kPa | 1007.9 ± 1.2 kg/m3
6781.9 kPa | 1008.1 ± 1.2 kg/m3 and 1008 ± 1.2 kg/m3
6782 kPa | 1008.2 ± 1.2 kg/m3
6782.2 kPa | 1008.2 ± 1.2 kg/m3 and 1008.1 ± 1.2 kg/m3 and 1008 ± 1.2 kg/m3
6782.4 kPa | 1007.9 ± 1.2 kg/m3 and 1008.2 ± 1.2 kg/m3 and 1008.1 ± 1.2 kg/m3
6782.6 kPa | 1008.1 ± 1.2 kg/m3 and 1008 ± 1.2 kg/m3
6782.7 kPa | 1008.2 ± 1.2 kg/m3 and 1008.1 ± 1.2 kg/m3 and 1008 ± 1.2 kg/m3
6782.9 kPa | 1008.1 ± 1.2 kg/m3 and 1008 ± 1.2 kg/m3
6783.1 kPa | 1007.9 ± 1.2 kg/m3 and 1008.1 ± 1.2 kg/m3 and 1008 ± 1.2 kg/m3
6783.2 kPa | 1008 ± 1.2 kg/m3
6783.3 kPa | 1008.1 ± 1.2 kg/m3 and 1008 ± 1.2 kg/m3
6783.4 kPa | 1008.1 ± 1.2 kg/m3 [middle of 4 runs]
6783.6 kPa | 1008 ± 1.2 kg/m3 and 1008.1 ± 1.2 kg/m3 and 1008.2 ± 1.2 kg/m3
6783.8 kPa | 1008.1 ± 1.2 kg/m3
6784.1 kPa | 1008 ± 1.2 kg/m3
6784.3 kPa | 1008.1 ± 1.2 kg/m3
6784.5 kPa | 1008 ± 1.2 kg/m3
6784.6 kPa | 1008.1 ± 1.2 kg/m3
6784.7 kPa | 1008 ± 1.2 kg/m3 and 1008.1 ± 1.2 kg/m3
6784.8 kPa | 1008.1 ± 1.2 kg/m3
6785 kPa | 1008.1 ± 1.2 kg/m3 and 1008.2 ± 1.2 kg/m3
6785.1 kPa | 1008.1 ± 1.2 kg/m3 and 1008 ± 1.2 kg/m3
6785.2 kPa | 1008.2 ± 1.2 kg/m3 and 1008.1 ± 1.2 kg/m3
6785.3 kPa | 1008.1 ± 1.2 kg/m3 and 1008 ± 1.2 kg/m3
6785.5 kPa | 1007.9 ± 1.2 kg/m3
6785.7 kPa | 1008 ± 1.2 kg/m3 and 1008.2 ± 1.2 kg/m3 and 1008.1 ± 1.2 kg/m3
6785.8 kPa | 1008.1 ± 1.2 kg/m3 and 1008 ± 1.2 kg/m3 and 1008.2 ± 1.2 kg/m3
6786 kPa | 1008.1 ± 1.2 kg/m3 and 1008 ± 1.2 kg/m3
6786.2 kPa | 1008.1 ± 1.2 kg/m3 and 1008.2 ± 1.2 kg/m3
6786.3 kPa | 1008.1 ± 1.2 kg/m3
6786.4 kPa | 1008.1 ± 1.2 kg/m3
6786.5 kPa | 1008 ± 1.2 kg/m3 and 1008.2 ± 1.2 kg/m3 and 1008.1 ± 1.2 kg/m3
6786.7 kPa | 1008 ± 1.2 kg/m3 and 1008.1 ± 1.2 kg/m3
6786.9 kPa | 1008 ± 1.2 kg/m3 and 1008.1 ± 1.2 kg/m3
6787 kPa | 1008 ± 1.2 kg/m3
6787.2 kPa | 1008.1 ± 1.2 kg/m3 and 1008 ± 1.2 kg/m3
6787.4 kPa | 1008 ± 1.2 kg/m3 and 1008.2 ± 1.2 kg/m3 and 1008.1 ± 1.2 kg/m3
6787.7 kPa | 1008.1 ± 1.2 kg/m3
6787.9 kPa | 1008 ± 1.2 kg/m3 and 1008.1 ± 1.2 kg/m3
6788.1 kPa | 1008.2 ± 1.2 kg/m3 and 1008.1 ± 1.2 kg/m3
6788.2 kPa | 1008 ± 1.2 kg/m3 and 1008.1 ± 1.2 kg/m3
6788.4 kPa | 1008.1 ± 1.2 kg/m3
6789.1 kPa | 1008.2 ± 1.2 kg/m3
6789.2 kPa | 1008 ± 1.2 kg/m3
6789.4 kPa | 1008 ± 1.2 kg/m3
6789.5 kPa | 1008 ± 1.2 kg/m3 and 1008.2 ± 1.2 kg/m3 and 1008.1 ± 1.2 kg/m3
6789.6 kPa | 1008.2 ± 1.2 kg/m3 and 1008.1 ± 1.2 kg/m3 and 1008 ± 1.2 kg/m3
6789.7 kPa | 1008.1 ± 1.2 kg/m3 and 1008 ± 1.2 kg/m3
6789.8 kPa | 1008 ± 1.2 kg/m3 and 1008.1 ± 1.2 kg/m3 and 1008.2 ± 1.2 kg/m3
6789.9 kPa | 1008 ± 1.2 kg/m3
6795.1 kPa | 1008.1 ± 1.2 kg/m3
6804.6 kPa | 1008.1 ± 1.2 kg/m3
6816.7 kPa | 1008 ± 1.2 kg/m3
6826.4 kPa | 1008 ± 1.2 kg/m3
6835.7 kPa | 1008.2 ± 1.2 kg/m3
6845.5 kPa | 1008.1 ± 1.2 kg/m3
6856.1 kPa | 1008.3 ± 1.2 kg/m3
6867.3 kPa | 1008.1 ± 1.2 kg/m3
6879.6 kPa | 1008.1 ± 1.2 kg/m3
6889.1 kPa | 1008.1 ± 1.2 kg/m3
6899.3 kPa | 1008.1 ± 1.2 kg/m3
6909.5 kPa | 1008.1 ± 1.2 kg/m3
6921.6 kPa | 1008.2 ± 1.2 kg/m3
6931.7 kPa | 1008.2 ± 1.2 kg/m3
6941.9 kPa | 1008.1 ± 1.2 kg/m3
6954.2 kPa | 1008.3 ± 1.2 kg/m3
6964.7 kPa | 1008.2 ± 1.2 kg/m3
6975.4 kPa | 1008.1 ± 1.2 kg/m3
6988.1 kPa | 1008.1 ± 1.2 kg/m3
6998.9 kPa | 1008.2 ± 1.2 kg/m3
7009.8 kPa | 1008.1 ± 1.2 kg/m3
7020.4 kPa | 1008.2 ± 1.2 kg/m3
7033.3 kPa | 1008.2 ± 1.2 kg/m3
7043.8 kPa | 1008.3 ± 1.2 kg/m3
7054.9 kPa | 1008.2 ± 1.2 kg/m3
7065.4 kPa | 1008.3 ± 1.2 kg/m3
7078.4 kPa | 1008.2 ± 1.2 kg/m3
7089.3 kPa | 1008.3 ± 1.2 kg/m3
7100.3 kPa | 1008.3 ± 1.2 kg/m3
7113.3 kPa | 1008.3 ± 1.2 kg/m3

From the NIST ThermoML archive (doi:10.1021/je060271a)
